Assay results reported in US10995150B2, “Methods for inhibiting atherosclerosis by administering an anti-PCSK9 antibody” (REGENERON PHARMACEUTICALS, INC., priority 2013, dated 2021).
One block for each molecule: values may come before it.

Assays:
[1] = tested on: APOE*3Leiden.CETP mice; assay: Plasma total cholesterol, triglycerides and lipoprotein profiles; format: in vivo, mouse; conditions: for TC reductions in lipoprotein profile (FPLC): lipoprotein separation by FPLC, FIG. 1C/1D; for average plasma TC, change compared to control: alone or + atorvastatin 3.6 mg/kg/d in diet
From the text: Ninety female APOE*3Leiden.CETP transgenic mice (9 to 13 weeks of age), expressing human CETP under control of its natural flanking regions, were used. During the study, mice were housed under standard conditions with a 12-hour light-dark cycle and had free access to food and water. Animal experiments were approved by the Institutional Animal Care and Use Committee of The Netherlands Organization for Applied Research.
Plasma was isolated from blood collected in ethylenediaminetetraacetic acid (EDTA)-coated cups via tail vein bleeding after a 4-hour fast every 2 to 4 weeks. Plasma TC and TG were determined using enzymatic kits according to the manufacturer's protocols (cat. no. 1458216 and cat. no. 1488872, respectively; Roche/Hitachi) and average plasma TC and TG levels were calculated. Lipoprotein profiles for TC were measured after lipoprotein separation by fast protein liquid chromatography (FPLC) after 4, 12, and 18 weeks of treatment. MAb316P levels were measured by a human Fc enzyme-linked immunosorbent assay.

[2] = tested on: APOE*3Leiden.CETP mice; assay: Total plaque load in the aortic arch (oil-red O); format: in vivo, mouse; conditions: mAb316P 10 mg/kg, alone or + atorvastatin 3.6 mg/kg/d; 18 weeks
From the text: Hearts were isolated, fixed in formalin, and embedded in paraffin. Cross-sections (5 μm each) of the entire aortic root area were stained with hematoxylin-phloxin-saffron. For each mouse, four sections at intervals of 50 μm were used for quantitative and qualitative assessment of the atherosclerotic lesions. To determine atherosclerotic lesion size and severity, the lesions were classified into five categories according to the American Heart Association classification: I) early fatty streak, II) regular fatty streak, III) mild plaque, IV) moderate plaque, and V) severe plaque. Total lesion area and number of lesions per cross-section, as well as the percentage undiseased segments, were calculated. To assess lesion severity as a percentage of all lesions, type I-Ill lesions were classified as mild lesions, and type IV-V lesions were classified as severe lesions. […] Data were normalized for analyzed surface area and expressed as percentage of the stained area. Photos/images were taken with the Olympus BX51 microscope and lesion areas were measured using Cell D imaging software (Olympus Soft Imaging Solutions).

[3] = tested on: APOE*3Leiden.CETP mice; assay: Histological assessment of atherosclerosis in the aortic root; format: in vivo, mouse; conditions: 18 weeks; for lesion severity (severe type IV-V lesions) compared with the control / lesion-free sections / undiseased segments compared with the control: dose of mAb316P not specified
From the text: Hearts were isolated, fixed in formalin, and embedded in paraffin. Cross-sections (5 μm each) of the entire aortic root area were stained with hematoxylin-phloxin-saffron. For each mouse, four sections at intervals of 50 μm were used for quantitative and qualitative assessment of the atherosclerotic lesions. To determine atherosclerotic lesion size and severity, the lesions were classified into five categories according to the American Heart Association classification: I) early fatty streak, II) regular fatty streak, III) mild plaque, IV) moderate plaque, and V) severe plaque. Total lesion area and number of lesions per cross-section, as well as the percentage undiseased segments, were calculated. To assess lesion severity as a percentage of all lesions, type I-Ill lesions were classified as mild lesions, and type IV-V lesions were classified as severe lesions. To determine the total plaque load in the thoracic aorta, perfusion-fixed aortas (from the aortic origin to the diaphragm) were cleaned of extravascular fat, opened longitudinally, pinned en face, and stained for lipids with oil-red O as described previously by Verschuren et al. (Arterioscler Thromb Vasc Biol. 2005; 25:161-167). Data were normalized for analyzed surface area and expressed as percentage of the stained area. Photos/images were taken with the Olympus BX51 microscope and lesion areas were measured using Cell D imaging software (Olympus Soft Imaging Solutions).

[4] = tested on: hepatic LDLR protein; assay: Hepatic LDLR protein levels (Western blot); format: in vivo, mouse; conditions: alone or + atorvastatin 3.6 mg/kg/d, 18 weeks
Experimental: Liver tissues were homogenized in lysis buffer (50 mM Tris-HCL [pH=7.4], 150 mM NaCl, 0.25% deoxycholic acid, 1% NP-40 [Igepal], 1 mM EDTA, protease inhibitor cocktail [complete, Roche], 1 mM PMSF, 1 mM Na3VO4) and then centrifuged at 6500 rpm at 4° C. for 30 minutes. Protein concentration in cell lysates was determined by bicinchonic acid protein assay (Thermo Scientific) according to manufacturer's instructions. 50 μg of protein lysates was separated by SDS-PAGE and then transferred to polyvinylidene fluoride membranes (Millipore). Blots were subjected to goat anti-mouse LDLR from R&D Systems and rabbit anti-goat horseradish peroxidase (HRP) from AbD Serotec or mouse anti-α-Tubulin from Sigma and horse anti-mouse HRP from Cell Signaling Technologies (according to the manufacturer's instructions); blots were developed with West Femto Super Signal ECL (Thermo Scientific) and subjected to the Chemi-Doc-it imaging system. Intensities of protein bands were quantified using Image J software.

[5] = tested on: APOE*3Leiden.CETP mice; assay: Flow cytometric analysis of white blood cells (PBMC); format: in vivo, mouse
From the text: After 8 weeks of treatment, peripheral blood mononuclear cells (PBMCs) were isolated from fresh blood samples and were sorted into GR-1+ (neutrophils/granulocytes), GR-1− (lymphocytes/monocytes), CD3+ (T-cells), CD19+ (B-cells) and CD11b+/Ly6C^low and CD11b+/Ly6C^hi (monocytes) cells using flow cytometric (FACS) analysis. The following conjugated monoclonal antibodies were used from Becton Dickinson: GR-1 FITC, CD3 PerCpCy5-5, CD19 V450, CD11b APC and Ly6C PE-Cy7.

[6] = tested on: APOE*3Leiden.CETP mice; assay: Liver weight and hepatic lipid analysis; conditions: atorvastatin 3.6 mg/kg/d alone; 18 weeks
From the text: Mice received a semi-synthetic cholesterol-rich diet, containing 15% (w/w) cacao butter and 0.15% cholesterol (Western-type diet [WTD]; Hope Farms, Woerden, The Netherlands) for a run-in period of 3 weeks to increase plasma total cholesterol (TC) levels up to ˜15 mmol/L. Body weight (BW) and food intake were monitored regularly during the study. […] At the end of the treatment period, all animals were sacrificed by CO2 inhalation. Livers and hearts were isolated to assess hepatic LDLR protein levels, lipid content, atherosclerosis development, and plaque composition.
Liver tissue samples were homogenized in phosphate-buffered saline, and the protein content was measured. Lipids were extracted, separated by high-performance thin-layer chromatography on silica gel plates, and analyzed with TINA2.09 software (Raytest Isotopen Messgerate Straubenhardt, Germany), as previously described by Post et al. (Hepatology. 1999; 30:491-500).

[7] = mAb316P 3 mg/kg weekly s.c., 18 weeks
[8] = mAb316P 10 mg/kg weekly s.c., 18 weeks
[9] = mAb316P 3 mg/kg weekly s.c., alone or + atorvastatin 3.6 mg/kg/d
[10] = mAb316P 10 mg/kg weekly s.c., alone or + atorvastatin 3.6 mg/kg/d
[11] = 10 mg/kg MAb316P and/or atorvastatin, after 8 weeks of treatment, mean ± SD
[12] = mAb316P 10 mg/kg, alone or + atorvastatin, 8 weeks

Molecule: mAb316P: human anti-PCSK9 antibody; HCVR SEQ ID NO:1, LCVR SEQ ID NO:6
- TC, 3 mg mAb316P versus 10 mg mAb316P (dose dependence) ([1]; alone, or both with atorvastatin 3.6 mg/kg/d, 18 weeks): −14%
- TC reductions in lipoprotein profile (FPLC) [1]: confined to apoB-containing lipoproteins
- average plasma TC, change compared to control [1, 7]: −37%
- average plasma TG, change compared to control [1, 7]: −33%
- average plasma TC, change compared to control [1, 8]: −46%
- average plasma TG, change compared to control [1, 8]: −39%
- total plaque area in the aortic arch, change vs control [2]: −67%
- lesion severity (severe type IV-V lesions) compared with the control [3]: fewer severe (type IV-V) lesions
- lesion-free sections / undiseased segments compared with the control [3]: more lesion-free sections
- atherosclerotic lesion size (aortic root), change compared to the control [3, 9]: −71%
- number of lesions per cross-section, change compared to the control [3, 9]: −17%
- atherosclerotic lesion size (aortic root), change compared to the control [3, 10]: −88%
- number of lesions per cross-section, change compared to the control [3, 10]: −30%
- Hepatic LDLR protein levels, change vs control ([4]; mAb316P 3 mg/kg weekly s.c.): +80%
- Hepatic LDLR protein levels, change vs control ([4]; mAb316P 10 mg/kg weekly s.c.): +133%
- B-cells [5, 11]: 66.3 ± 15.0 % of PBMC population
- CD11b+ Ly6C^hi [5, 11]: 57.5 ± 8.4 % of monocytes
- CD11b+ Ly6C^low [5, 11]: 40.0 ± 8.0 % of monocytes
- Lymphocytes/Monocytes [5, 11]: 92.9 ± 2.0 % of PBMC population
- Monocytes [5, 11]: 8.9 ± 2.5 % of PBMC population
- Neutrophils/Granulocytes [5, 11]: 7.1 ± 2.0 % of PBMC population
- anti-inflammatory Ly6C^low monocytes, change vs control [5, 12]: +12%
- granulocytes/neutrophils (as % of PBMC population), change vs control [5, 12]: −20%
- monocytes (as % of PBMC population), change vs control [5, 12]: −28%
- pro-inflammatory Ly6C^hi monocytes, change vs control [5, 12]: −8%

- liver weight, change compared to the control group [6]: −15%
Molecule: CC(C)c1c(C(=O)Nc2ccccc2)c(-c2ccccc2)c(-c2ccc(F)cc2)n1CC[C@@H](O)C[C@@H](O)CC(=O)O [atorvastatin, reference compound]
- TC reductions in lipoprotein profile (FPLC) [1]: confined to apoB-containing lipoproteins
- lesion severity (severe type IV-V lesions) compared with the control [3]: reduced severity to a lesser extent
- lesion-free sections / undiseased segments compared with the control [3]: no effect
- atherosclerotic lesion size (aortic root), change compared to the control ([3]; atorvastatin 3.6 mg/kg/d alone): −35%
- effect on the number of lesions ([3]; atorvastatin 3.6 mg/kg/d alone): no effect
- B-cells [5, 11]: 69.5 ± 17.4 % of PBMC population
- CD11b+ Ly6C^hi [5, 11]: 51.2 ± 6.4 % of monocytes
- CD11b+ Ly6C^low [5, 11]: 47.8 ± 6.3 % of monocytes
- Lymphocytes/Monocytes [5, 11]: 94.9 ± 1.6 % of PBMC population
- Monocytes [5, 11]: 5.3 ± 2.4 % of PBMC population
- Neutrophils/Granulocytes [5, 11]: 5.1 ± 1.6 % of PBMC population
- T-cells [5, 11]: 17.0 ± 4.8 % of PBMC population
